Laboratory results: the supplement of paper PMC11208160

Test: recombinant UMI read abundance after kanamycin selection (control-corrected) (log10(CPM+1)); higher = more efficient recombination; extreme values may be limits of the assay; sequences stand for … in AGTGCAGAGAAAATCGGCCAGTTTTCTCTGCCTGCAGTCCGCATGCCGTGGGACCCCTTGGGTTCTAACCTGTTGCCTAGATTTATGCAGCGGACTGCCTTTCTCCCAAAGTGATAAACCGG…AGGTTGGTTTCACT; site = the 11-nt donor
In short: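 Under IPTG (0.07 mM) plus kanamycin, or without selection, Escherichia coli carrying a UMI-tagged donor and donor-binding-loop pair library and a target plasmid for the IS621 bridge recombinase were plated in two replicates. Recombinant UMIs were PCR-amplified across the donor–target junction and sequenced. Counts were converted to CPM, averaged over replicates, scaled by control-derived factors and reported as log10(CPM+1).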
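Also: IS621 bridge recombinase in Escherichia coli cells against a fixed T5 target plasmid.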

Row | Sequence | recombinant UMI read abundance (log10)
1 | GTAGTCGCATGGACCGGTTTTCCCGGTAATCCGTATTTGGG (site GTAGTCGCTCT) | 0.661
2 | GTAGTTACATGGACCGGTTTTCCCGGTAATCCGTATTTGAC (site GTAGATACTGT) | 2.18
3 | GTAGTTACATGGACCGGTTTTCCCGGTAATCCGTATTTGAC (site GTAGCTACTGT) | 1.23
4 | GTAGTTACATGGACCGGTTTTCCCGGTAATCCGTATTTGAC (site GTAGGTACTGT) | 0.575
5 | GTAGTTACATGGACCGGTTTTCCCGGTAATCCGTATTTGAC (site GTAGTTACTGT) | 2.74
6 | GTAGTTCCATGGACCGGTTTTCCCGGTAATCCGTATTTGGT (site GTAGTTCCTAC) | 0.849
7 | GTAGTTCCATGGACCGGTTTTCCCGGTAATCCGTATTTGGT (site GTCGTTCCTAC) | 0
8 | GTAGTTCCATGGACCGGTTTTCCCGGTAATCCGTATTTGGT (site GTGGTTCCTAC) | 0.00522
9 | GTAGTTCCATGGACCGGTTTTCCCGGTAATCCGTATTTGGT (site GTTGTTCCTAC) | 0.00774
10 | GTATCAGCATGGACCGGTTTTCCCGGTAATCCGTATTTGTC (site GTATCAGCTGA) | 3.03
11 | GTATCTACATGGACCGGTTTTCCCGGTAATCCGTATTTGCT (site GTATCTACTAG) | 1.66
12 | GTATCTCCATGGACCGGTTTTCCCGGTAATCCGTATTTGTA (site GTATCTCCTTA) | 0.705
13 | GTATGCACATGGACCGGTTTTCCCGGTAATCCGTATTTGTC (site GTATGCACTAA) | 0.663
14 | GTATGCACATGGACCGGTTTTCCCGGTAATCCGTATTTGTC (site GTATGCACTCA) | 0.0163
15 | GTATGCACATGGACCGGTTTTCCCGGTAATCCGTATTTGTC (site GTATGCACTGA) | 3.13
16 | GTATGCACATGGACCGGTTTTCCCGGTAATCCGTATTTGTC (site GTATGCACTTA) | 1.33

Row | Sequence | recombinant UMI read abundance (log10)
17 | GTATGCACATGGACCGGTTTTCCCGGTAATCCGTATTTGTT (site GTATGCACTAA) | 1.32
18 | GTATGCACATGGACCGGTTTTCCCGGTAATCCGTATTTGTT (site GTATGCACTCA) | 0.25
19 | GTATGCACATGGACCGGTTTTCCCGGTAATCCGTATTTGTT (site GTATGCACTGA) | 1.66
20 | GTATGCACATGGACCGGTTTTCCCGGTAATCCGTATTTGTT (site GTATGCACTTA) | 0.606
21 | GTATGTACATGGACCGGTTTTCCCGGTAATCCGTATTTGAC (site GTAAGTACTGT) | 0.262
22 | GTATGTACATGGACCGGTTTTCCCGGTAATCCGTATTTGAC (site GTACGTACTGT) | 2.5
23 | GTATGTACATGGACCGGTTTTCCCGGTAATCCGTATTTGAC (site GTAGGTACTGT) | 0.95
24 | GTATGTACATGGACCGGTTTTCCCGGTAATCCGTATTTGAC (site GTATGTACTGT) | 2.9
25 | GTATTAACATGGACCGGTTTTCCCGGTAATCCGTATTTGCA (site GTATTAACTTG) | 2.37
26 | GTATTATCATGGACCGGTTTTCCCGGTAATCCGTATTTGTG (site GTATTATCTCA) | 2.22
27 | GTATTCACATGGACCGGTTTTCCCGGTAATCCGTATTTGTA (site GTATACACTTA) | 0.154
28 | GTATTCACATGGACCGGTTTTCCCGGTAATCCGTATTTGTA (site GTATCCACTTA) | 0.507
29 | GTATTCACATGGACCGGTTTTCCCGGTAATCCGTATTTGTA (site GTATGCACTTA) | 0.0233
30 | GTATTCACATGGACCGGTTTTCCCGGTAATCCGTATTTGTA (site GTATTCACTTA) | 2.35
31 | GTATTGACATGGACCGGTTTTCCCGGTAATCCGTATTTGTG (site GTATTGACTCA) | 1.4
32 | GTCAAAGCATGGACCGGTTTTCCCGGTAATCCGTATTTGGT (site GTCAAAGCTAC) | 2.11
